According to patent publication US20210063414A1, “METHODS FOR PREVENTING AND/OR TREATING BONE LOSS CONDITIONS BY MODULATING IRISIN” (Dana-Farber Cancer Institute, Inc., priority 2018, published 2021):
Entries after “also recorded” stand apart in the source; their conditions may differ.

System: MLO-Y4 cells
Experiment: Integrin-like signaling (pFAK, pZyxin, pAKT, pCREB) in MLO-Y4 cells, immunoblot
Format: cell-based
Conditions: MLO-Y4, inhibitor pre-treatment 10 minutes before irisin
Method: Integrin heterodimer binds to its ligand. The interaction results in phosphorylation of FAK and Zyxin, followed by phosphorylation of AKT (at T308) and CREB. PM is plasma membrane. FIG. 2C and FIG. 2D show the immunoblots. MLO-Y4 cells were seeded and incubated until 60% cell density. The cells were incubated with serum free medium (FreeStyle™ 293 medium) for 4 hours and were treated for indicated time with 10 nM norepinephrine or irisin (FIG. 2C) or indicated concentrations of irisin for 10 minutes (FIG. 2D). Cells were lysed to detect the indicated protein level using immunoblot analysis.
Certain materials and methods were used to generate the results described herein. For example, the data shown in FIG. 1A resulted from MLO-Y4 (an osteocyte-like cell line) cells treated with the indicated concentration of irisin and hydrogen peroxide for 4 hours. Cells were stained with Hoechst 33342 (ThermoFisher Scientific, catalog number H3570) and Eth-D1 (ThermoFisher Scientific, catalog number E1169) and analyzed to determine the percentage of cell death using ImageJ. The data shown in FIG. 2D resulted from MLO-Y4 incubated in serum free medium (FreeStyle™ 293 expression medium, ThermoFisher Scientific, catalog number 12338018) for 4 hours followed by treatment of indicated concentrations of irisin for 10 minutes. Cells were lysed to detect the indicated protein level using immunoblot analysis (Cell Signaling Technology, catalog numbers 3283S, 3285S, 8467S, 3553S, 9198S, and 9104S; Abcam, catalog number ab49900-100ul). The data shown in FIG. 3 resulted from 3T3-F442A cells incubated in serum free medium for 4 hours followed by treatment of indicated concentrations of irisin for 10 minutes. Cells were lysed by RIPA buffer to detect the indicated protein level using immunoblot analysis. The data shown in FIG. 4 were generated from 100 nM flag-tagged irisin (Enzo life sciences, catalog number ADI-908-307-3010) incubated with 5 nM of the indicated 6 his-tag integrins (R & D Systems Inc., catalog numbers 7064-AB-025, 5668-A4-050, 5438-A9-050, 6357-AB-050, and 6579-AV-025) in the presence of RGDS peptide (R & D Systems Inc., catalog number 3498/10) or its control peptide (Enzo Life Sciences, catalog Number BML-P701-0005) followed by immunoprecipitation using 6 his-tag beads (ThermoFisher Scientific, catalog number R901-01). Co-precipitated irisin was analyzed by immunoblot analysis against flag tag (Sigma Aldrich, catalog number A8592). The data shown in FIGS. 5A and 5B were generated from MLO-Y4 cells treated and analyzed as in the experiments used to generate the data shown in FIG. 2D, except that pre-treatment of 100 nM RGDS (FIG. 5A) or echistatin (R & D Systems Inc., catalog number 3202/100U) (FIG. 5B) for 10 minutes was performed before irisin treatment. The data shown in FIGS. 6A and 6B were generated from MLO-Y4 cells incubated in serum free medium for 3 hours followed by treatment of indicated time of 10 nM irisin for 16 hours. RNAs were extracted from the cells and the sclerostin mRNA level was analyzed by qPCR (FIG. 6A) or treated and analyzed as in (FIG. 6A), except that pre-treatment of 10 μM RGDS, RGDyK (Selleck, catalog number S7844), or echistatin was performed for 10 minutes before irisin treatment. The data shown in FIGS. 7A and 7B were generated from 8 week-old mice injected with the indicated dose of irisin for 6 days. Tibias were collected and treated with collagenase to obtain mRNA from the osteocyte-enriched bones. Sclerostin mRNA level was analyzed by qPCR (FIG. 7A). Serum was collected to analyze the sclerostin protein level using ELISA kit (R&D Systems Inc., catalog number MSST00) (FIG. 7B). The data shown in FIG. 8 were generated from 8 week-old mice injected with the indicated dose of irisin for 6 days. Epididymal fats were collected, RNAs were extracted from the tissues, and mRNA levels of the indicated genes were analyzed by qPCR. […]

N=C(N)NCCC[C@@H]1NC(=O)[C@H](CCCCN)NC(=O)[C@@H](Cc2ccc(O)cc2)NC(=O)[C@H](CC(=O)O)NC(=O)CNC1=O [cyclo RGDyK]
effect of integrin inhibitor on irisin-induced signaling (phosphorylation of FAK, Zyxin, CREB): block irisin-induced signaling

RGDS peptide: classical integrin competitive inhibitory peptide, commercially available form of the RGD peptide
effect of integrin inhibitor on irisin-induced signaling (phosphorylation of FAK, Zyxin, CREB): most irisin signaling in osteocytes was inhibited; also recorded: dramatically suppressed
